Test results: patent publication US6914045B2, “Glycopeptide antibiotics” (Wyeth Holdings Corporation, priority 2001, dated 2005)

Tests used:
[1] = test system: Staphylococcus aureus-SMITH (GC 4543); test: acute lethal infection in mice; type: in vivo; conditions: acute lethal infection, female CD-1 mice, intraperitoneal challenge, intravenous 30 min. after infection, 7 day survival
How it was run: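 ED50 from 7 day survival ratios pooled over 3 separate tests. Female CD-1 mice, 20+/−2 gm, ip bacterial challenge (trypticase soy broth or hog gastric mucin) lethal to untreated controls in 24-48 hr; iv dosing 30 min after infection in saline or 5% dextrose, n=5/dose.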

Staphylococcus sp. = test: in vitro antibacterial evaluation, MIC by broth dilution; type: cell-based; conditions: broth dilution, 18 hours at 35° C.
How it was run: (§1)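 Step 1: dilute antibiotic across 64-0.06 μg/mL in Muller-Hinton II […]. Step 2: inoculate at 5×10^5 CFU/mL.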

Streptococcus sp. = test: as above; type: cell-based; conditions: broth dilution, 18 hours at 35° C.
How it was run: as §1

Enterococcus sp. = test: as above; type: cell-based; conditions: broth dilution, 18 hours at 35° C.
How it was run: as §1

Escherichia coli = test: as above; type: cell-based; conditions: 18 hours at 35° C.
How it was run: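 Test organisms, which included recent clinical isolates resistant to methicillin, penicillin and/or vancomycin, were inoculated at 5×10^5 CFU/mL into Muller-Hinton II […] containing antibiotic at 64-0.06 μg/mL. Minimum inhibitory concentrations were then read as the lowest level inhibiting growth.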

CC(C)CC(=O)OC1C(O)C(CO)OC(OC2C(CO)OC(Oc3ccc(CC4NC(=O)C(C(C)c5ccc(Cl)cc5)NC(=O)CNC(=O)C(CO)NC(=O)C(C(O)C5CNC(=N)N5C5OC(CO)C(O)C(O)C5O)NC(=O)C(C(O)C5CNC(=N)N5)NC4=O)cc3)C(O)C2O)C1O (stereo not drawn) [Example 262b, Cyclo[glycyl-4-chloro-β-methylphenylalanyl-O-[4-O-[3-O-(3-methylbutanoyl)hexopyranosyl]-hexopyranosyl]tyrosyl-3-(2-iminoimidazolidin-4-yl)seryl-3-(3-hexopyranosyl-2-iminoimidazolidin-4-yl)serylseryl]]
1.22 mg/kg: median effective dose (ED50), Staphylococcus aureus-SMITH (GC 4543) [1]
1 µg/mL: MIC Coagulase Negative Staphylococcus (GC 4548) (Staphylococcus sp.) | MIC Coagulase Negative Staphylococcus (GC 4549) (Staphylococcus sp.) | MIC Staphylococcus aureus-SMITH (GC 4543) (Staphylococcus sp.) | MIC Coagulase Negative Staphylococcus (GC 4548) (Staphylococcus sp.; strain GC 4548) | MIC Coagulase Negative Staphylococcus (GC 4549) (Staphylococcus sp.; strain GC 4549) | MIC Staphylococcus aureus-SMITH (GC 4543) (Staphylococcus sp.; strain SMITH GC 4543) | MIC Streptococcus agalactiae (GC 4564) (Streptococcus sp.; strain GC 4564) | MIC Streptococcus pyogenes (ID-3187) (Streptococcus sp.; strain ID-3187) | MIC Escherichia coli (GC 4560) (Escherichia coli; Escherichia coli (GC 4560))
4 µg/mL: MIC Staphylococcus aureus (ATCC 29213) (Staphylococcus sp.) | MIC Staphylococcus aureus (GC 1131) (Staphylococcus sp.) | MIC Staphylococcus aureus (GC 4544) (Staphylococcus sp.) | MIC Staphylococcus aureus (ATCC 29213) (Staphylococcus sp.; strain ATCC 29213) | MIC Staphylococcus aureus (GC 1131) (Staphylococcus sp.; strain GC 1131) | MIC Staphylococcus aureus (GC 4544) (Staphylococcus sp.; strain GC 4544)
16 µg/mL: MIC Enterococcus avium (GC 4558) (Enterococcus sp.; Enterococcus avium (GC 4558)) | MIC Enterococcus faecium (GC 2243) (Enterococcus sp.; Enterococcus faecium (GC 2243)) | MIC Enterococcus faecium (GC 4556) (Enterococcus sp.; Enterococcus faecium (GC 4556)) | MIC Enterococcus faecalis (GC 2242) (Enterococcus sp.; strain GC 2242) | MIC Enterococcus faecium (GC 2243) (Enterococcus sp.; strain GC 2243) | MIC Enterococcus faecium (GC 4556) (Enterococcus sp.; strain GC 4556) | MIC Enterococcus avium (GC 4558) (Enterococcus sp.; strain GC 4558)
32 µg/mL: MIC Enterococcus faecalis (ATCC 29212) (Enterococcus sp.; Enterococcus faecalis (ATCC 29212)) | MIC Enterococcus faecalis (GC 4553) (Enterococcus sp.; Enterococcus faecalis (GC 4553)) | MIC Enterococcus faecalis (GC 4554) (Enterococcus sp.; Enterococcus faecalis (GC 4554)) | MIC Enterococcus faecalis (ATCC 29212) (Enterococcus sp.; strain ATCC 29212) | MIC Enterococcus faecalis (GC 4552) (Enterococcus sp.; strain GC 4552) | MIC Enterococcus faecalis (GC 4553) (Enterococcus sp.; strain GC 4553) | MIC Enterococcus faecalis (GC 4554) (Enterococcus sp.; strain GC 4554)
>64 µg/mL: MIC Escherichia coli (ATCC 25922) (Escherichia coli; Escherichia coli (ATCC 25922)) | MIC Escherichia coli (GC 4559) (Escherichia coli; Escherichia coli (GC 4559))
2 µg/mL: MIC Coagulase Negative Staphylococcus (GC 4547) (Staphylococcus sp.) | MIC Coagulase Negative Staphylococcus (GC 4551) (Staphylococcus sp.) | MIC Staphylococcus aureus (GC 4541) (Staphylococcus sp.) | MIC Staphylococcus aureus (GC 4542) (Staphylococcus sp.) | MIC Staphylococcus aureus (GC 4545) (Staphylococcus sp.) | MIC Staphylococcus haemolyticus (GC 4546) (Staphylococcus sp.) | MIC Staphylococcus aureus (GC 4541) (Staphylococcus sp.; strain GC 4541) | MIC Staphylococcus aureus (GC 4542) (Staphylococcus sp.; strain GC 4542) | MIC Staphylococcus aureus (GC 4545) (Staphylococcus sp.; strain GC 4545) | MIC Staphylococcus haemolyticus (GC 4546) (Staphylococcus sp.; strain GC 4546) | MIC Coagulase Negative Staphylococcus (GC 4547) (Staphylococcus sp.; strain GC 4547) | MIC Coagulase Negative Staphylococcus (GC 4551) (Staphylococcus sp.; strain GC 4551) | MIC Enterococcus faecium (GC 4557) (Enterococcus sp.; Enterococcus faecium (GC 4557)) | MIC Enterococcus faecium (GC 4557) (Enterococcus sp.; strain GC 4557)
